Test results taken from the NIST ThermoML archive (doi:10.1021/acs.jced.5b01058).
Numbers after ± are expanded uncertainties.

Conditions: Liquid, Ebulliometric method (Recirculating still)

CCCCCCC [heptane]
Conditions	vapor or sublimation pressure [kPa]
368.85 K	94 ± 0.7

CCCCOC(C)=O [butyl ethanoate]
Conditions	vapor or sublimation pressure [kPa]
361.85 K	29.92 ± 0.77
364.47 K	32.95 ± 0.78
370.9 K	41.42 ± 0.79
373.32 K	45.02 ± 0.82
380.1 K	56.43 ± 0.83
381.99 K	60 ± 0.9
382.01 K	60 ± 0.9
382.08 K	60.15 ± 0.87
388.06 K	72.71 ± 0.89
391.2 K	80.09 ± 0.93
394.58 K	88.69 ± 0.96
398.35 K	99.03 ± 1
399.09 K	101.3 ± 1

CCCCCOC=O [pentyl methanoate]
Conditions	vapor or sublimation pressure [kPa]
370.04 K	33.67 ± 0.8
374.41 K	39.15 ± 0.81
377.87 K	44.06 ± 0.83
381.35 K	49.42 ± 0.86
385.08 K	55.79 ± 0.88
387.4 K	60 ± 0.9
387.46 K	60 ± 0.9
387.67 K	60.5 ± 0.9
391.65 K	68.46 ± 0.94
394.01 K	73.5 ± 0.97
396.89 K	80.16 ± 1
399.55 K	86.56 ± 1
402.19 K	93.45 ± 1.1
405.12 K	101.3 ± 1.1

CCCC(=O)OCC [ethyl butanoate]
Conditions	vapor or sublimation pressure [kPa]
361.56 K	35.41 ± 0.79
365.24 K	40.41 ± 0.81
371.33 K	50 ± 0.82
373.83 K	54.4 ± 0.84
376.28 K	58.98 ± 0.83
377.21 K	60 ± 0.9
377.23 K	60 ± 0.9
379.65 K	65.75 ± 0.9
384.82 K	77.2 ± 0.91
387.65 K	84.14 ± 0.94
390.23 K	90.84 ± 0.98
393.63 K	100.4 ± 0.99
393.78 K	101.3 ± 1

CCCCCCCC [octane]
Conditions	vapor or sublimation pressure [kPa]
380.76 K	60 ± 1
380.78 K	60 ± 1
380.82 K	60 ± 1
380.84 K	60 ± 1
380.85 K	60 ± 1
380.87 K	60 ± 1
380.94 K	60 ± 1

CCCOC(=O)CC [propyl propanoate]
Conditions	vapor or sublimation pressure [kPa]
361.75 K	33.58 ± 0.79
367.3 K	40.92 ± 0.8
371.88 K	47.9 ± 0.81
373.82 K	51.21 ± 0.84
378.75 K	60 ± 1
379.07 K	60.83 ± 0.95
383.56 K	70.32 ± 0.9
386.81 K	77.9 ± 0.93
390.13 K	86.38 ± 0.96
392.74 K	93.37 ± 0.99
395.51 K	101.3 ± 1

CCC(C)=O [butanone]
Conditions	vapor or sublimation pressure [kPa]
350.25 K	94 ± 0.7

CCCCC(=O)OC [methyl pentanoate]
Conditions	vapor or sublimation pressure [kPa]
361.82 K	29.41 ± 0.77
366.7 K	35.06 ± 0.78
370.86 K	40.47 ± 0.79
374.53 K	45.81 ± 0.81
378.84 K	52.83 ± 0.83
382.55 K	59.35 ± 0.75
383.29 K	60 ± 0.8
387.18 K	69.02 ± 0.9
391.14 K	77.71 ± 0.91
395.42 K	88.17 ± 0.94
398.03 K	95.08 ± 0.96
400.07 K	100.4 ± 0.9
400.48 K	101.3 ± 0.9
